{
  "source": "ChEMBL document CHEMBL1158776",
  "about": "“Pseudoguanolide sesquiterpene lactones from Vernoniopsis caudata and their in vitro antiplasmodial activities” (J Nat Prod, 2005)",
  "key": {"[1]": {"tested_on": "KB", "assay": "Cytotoxicity against human KB cells after 72 hrs", "type": "functional, cell-based"}, "[2]": {"tested_on": "Plasmodium falciparum", "assay": "Antiplasmodial activity against chloroquine-resistant Plasmodium falciparum FCB1 in human blood as [G-3H]hypoxanthine uptake", "type": "functional, organism-based"}},
  "note": "pIC50: −log10 of the molar value.",
  "data": [
    {"smiles": "COc1cccc2c1C(=O)c1c(O)c3c(c(O)c1C2=O)C[C@@](O)(C(=O)CO)C[C@@H]3O[C@H]1C[C@H](N)[C@H](O)[C@H](C)O1", "note": "[DOXORUBICIN]", "values": [
      {"measurement": "pIC50", "setting": "[1]", "result": 6.57}
    ]},
    {"smiles": "C=C1C(=O)O[C@@H]2C[C@@H](C)[C@@H]3C=CC(=O)[C@@]3(C)[C@@H](OC(=O)C(=C)[C@@H](C)O)[C@H]12", "values": [
      {"measurement": "pIC50", "setting": "[1]", "result": 6.48},
      {"measurement": "pIC50", "setting": "[2]", "result": 6.00}
    ]},
    {"smiles": "C=C(C(=O)O[C@H]1[C@H]2[C@@H](C[C@@H](C)[C@@H]3C=CC(=O)[C@]31C)OC(=O)[C@@H]2C)[C@@H](C)O", "values": [
      {"measurement": "pIC50", "setting": "[1]", "result": 7.30},
      {"measurement": "pIC50", "setting": "[2]", "result": 6.39}
    ]},
    {"smiles": "C=C1C(=O)O[C@@H]2C[C@@H](C)[C@@H]3C=CC(=O)[C@@]3(C)[C@@H](OC(=O)/C(=C\\C)CO)[C@H]12", "values": [
      {"measurement": "pIC50", "setting": "[1]", "result": 6.03},
      {"measurement": "pIC50", "setting": "[2]", "result": 6.72}
    ]}
  ]
}
